Consider three molecules from ChEMBL document CHEMBL1157276, “Halogenated monoterpenes from plocamium costatum and their biological activity1” (1999).

What all share (type): functional
Test [1] deals with Amphibalanus amphitrite. The experiment in a line: Antifouling activity against cypris larvae at 10 ug/cm'2.
The subject of test [2] is Amphibalanus amphitrite. The experiment in a line: Antifouling activity against cypris larvae at 0.1 ug/cm'2.
The subject of test [3] is Amphibalanus amphitrite. The experiment in a line: Antifouling activity against cypris larvae at 0.01 ug/cm'2.
Test [4] deals with Amphibalanus amphitrite. The experiment in a line: Antifouling activity against cypris larvae at 1 ug/cm'2.

Turning to `C=CC(C)(O)CCCC(C)CCCC(C)CCCC(C)C` (configuration not stated), the Activity in the test on Amphibalanus amphitrite [1] was determined as 13%; in the test with Amphibalanus amphitrite [2] it was 54%; in the test on Amphibalanus amphitrite [3] it was 43%; in the test with Amphibalanus amphitrite [4], 23%.

For the molecule `C[C@](Cl)(/C=C/[C@H](Cl)[C@](C)(Cl)/C=C/Br)C(Br)Br`, the Activity is recorded as 2.2% in the test with Amphibalanus amphitrite [1], 54% in the test on Amphibalanus amphitrite [2], 42% in the test on Amphibalanus amphitrite [3] and 37% in the test on Amphibalanus amphitrite [4].

With `C=C(C)C(Cl)C/C=C(\C)C(Cl)CBr` (configuration not stated), the Activity with Amphibalanus amphitrite [1] was found to be 58%; in the test with Amphibalanus amphitrite [2], 52%; in the test on Amphibalanus amphitrite [3] it was 57%; in the test on Amphibalanus amphitrite [4], 53%.
